# Laboratory results taken from US20260217701A1, “SELECTIVE BET INHIBITORS AND USES THEREOF” (Tay Therapeutics Limited, priority 2022, published 2026).
# Several values for one entry are separate records, joined by “and”; a condition that tells them apart may be missing. Identical values can stand only once. Like-named read-outs stand apart in the source and are kept apart here.
# Key:
# [1] = Rat PK study #4 (Compound A PO 0.2 and 1.0 mg/kg, propylene glycol formulation); format: in vivo, Lewis rats; settings: propylene glycol-based formulation; for Plasma Concentration / concentration at 0.25 h / concentration at 0.5 h / concentration at 1 h / concentration at 2 h / concentration at 4 h / concentration at 6 h / concentration at 8 h / concentration at 24 h: Lewis rats; for MRT inf: read-out: MRTInf_obs
# Description: For the fourth rat pharmacokinetic study, the pharmacokinetics of Compound A were assessed in male Lewis rats. Compound A was prepared in two different doses (0.2 mg/kg and 1.0 mg/kg) formulated in 20% propylene glycol/20% Vitamin E TPGS/60% water (see Table 1A for formulations). Animals were divided into two groups based on the compound formulation (n=3/group). The Compound A solutions were administered to animals orally (PO) and animals were then monitored over a 24 h period.
# Blood samples (~0.2 mL) were collected according to a schedule (0.25, 0.5, 1, 2, 4, 6, 8, and 24 h following the initial dosing) by jugular vein by cannulation and EDTA-K2 was used as anticoagulant. Within 30 minutes of collection, the samples were centrifuged at approximately 4000 times g-force for 5 minutes at 4° C. to obtain blood plasma. The plasma samples were immediately divided into two aliquots (~75 μL each), transferred to a cryogenic vial, and stored in a freezer at −75±15° C. prior to analysis.
# The concentration of Compound A in plasma samples was determined by liquid chromatography-mass spectrometry (LC-MS/MS) using a Shimadzu HPLC (DGU-20A5R; LC-30AD; SIL-30AC; Rack changer II; CTO-30A; and CBM-20A) and an AB API 5500+LC/MS/MS instrument. Samples were analyzed on an Agilent Poroshell 120 EC-C18 4 μm (50×2.1 mm) column. Solution A in the mobile phase was 95% water (0.1% formic acid) and solution B was 95% acetonitrile in water (0.1% formic acid), injection volume was 10 μL, and flow rate was 0.6 mL/min.
# To prepare samples for analysis, serial concentrations were prepared by diluting the stock solution of analyte with a 50% acetonitrile in water solution. 5 μL working solutions (5, 10, 20, 50, 100, 500, 1000, 5000, and 10000 ng/ml) were added to 50 μL of the blank Lewis rat plasma to achieve calibration standards of ~0.5 to 1000 ng/ml (0.5, 1, 2, 5, 10, 50, 100, 500, and 1000 ng/ml) in a total volume of 55 μL. Five quality control samples at 1 ng/ml, 2 ng/ml, 5 ng/ml, 50 ng/ml, and 800 ng/ml for plasma were prepared independently of those used for the calibration curves. These QC samples were prepared on the day of analysis in the same way as calibration standards.
# 55 μL of standards, 55 μL of QC samples and 55 μL of unknown samples (50 μL of unknown rat plasma with 5 µL of blank solution) were added to 200 μL of acetonitrile containing IS mixture (verapamil) for precipitating protein respectively. The samples were then vortexed for 30 s. After centrifugation at 4° C., 3900 rpm for 15 min, the supernatant was diluted 3 times with water. 10 μL of diluted supernatant was injected into the LC/MS/MS system for quantitative analysis.
# hydroxyproline = assay: UUO study: hydroxyproline levels; format: in vivo, rats
# Description: Table 31 and FIGS. 27B-27C depict hydroxyproline levels in sham rats (black bar in FIG. 27B; square shape in FIG. 27C), UUO rats treated with vehicle (grey bar in FIG. 27B; circle shape in FIG. 27C), and UUO rats treated with Compound A (white bar in FIG. 27B; triangle shape in FIG. 27C).
# [2] = 0.2 mg/kg PO, individual animals
# [3] = male, Lewis, rat, plasma, po, 0.2 mg/kg, 0.2 mg/kg PO, individual animals
# [4] = male, Lewis, rat, plasma, po, 0.2 mg/kg, 0.2 mg/kg PO, mean
# [5] = male, Lewis, rat, plasma, po, 1 mg/kg, 1 mg/kg PO, individual animals
# [6] = male, Lewis, rat, plasma, po, 1 mg/kg, 1 mg/kg PO, mean
smiles,measurement,setting,value
"Cn1cc(-c2ccccc2)c(-c2cn(C)c(=O)c3[nH]c(-c4cnn(C(F)(F)F)c4)cc23)cc1=O [Compound A, 6-methyl-4-(1-methyl-2-oxo-5-phenyl-1,2-dihydropyridin-4-yl)-2-(1-(trifluoromethyl)-1H-pyrazol-4-yl)-1,6-dihydro-7H-pyrrolo[2,3-c]pyridin-7-one]",AUCInf,[1]; [2],82.0 ng·h/mL and 51.1 ng·h/mL and 103 ng·h/mL
same,AUC_%Extrap_obs,[1]; [2],7.28% and 43.9% and 3.68%
same,AUClast,[1]; [2],76.0 ng·h/mL and 28.7 ng·h/mL and 99.1 ng·h/mL
same,AUClast/D,[1]; [2],380 (ng · h/mL)/(mg/kg) and 143 (ng · h/mL)/(mg/kg) and 496 (ng · h/mL)/(mg/kg)
same,Cmax,[1]; [2],5.29 ng/mL and 8.20 ng/mL
same,MRTInf_obs,[1]; [2],9.52 h and 7.69 h
same,T1/2,[1]; [2],6.09 h and 4.94 h
same,AUC_%Extrap_obs,"[1]; 0.2 mg/kg PO, mean",18.3%
same,AUClast/D,"[1]; 0.2 mg/kg PO, mean",340 (ng · h/mL)/(mg/kg)
same,AUCInf,"[1]; 1 mg/kg PO, individual animals",454 ng·h/mL and 217 ng·h/mL
same,AUC_%Extrap_obs,"[1]; 1 mg/kg PO, individual animals",3.74% and 14.6%
same,AUClast,"[1]; 1 mg/kg PO, individual animals",437 ng·h/mL and 185 ng·h/mL and 447 ng·h/mL
same,AUClast/D,"[1]; 1 mg/kg PO, individual animals",437 (ng · h/mL)/(mg/kg) and 185 (ng · h/mL)/(mg/kg) and 447 (ng · h/mL)/(mg/kg)
same,Cmax,"[1]; 1 mg/kg PO, individual animals",47.5 ng/mL and 23.3 ng/mL and 44.9 ng/mL
same,MRTInf_obs,"[1]; 1 mg/kg PO, individual animals",11.4 h
same,T1/2,"[1]; 1 mg/kg PO, individual animals",9.35 h
same,AUC_%Extrap_obs,"[1]; 1 mg/kg PO, mean",9.2%
same,AUClast/D,"[1]; 1 mg/kg PO, mean",356 (ng · h/mL)/(mg/kg)
same,clinical symptoms,[1]; 0.2 and 1 mg/kg PO,no abnormal clinical symptoms observed
same,Plasma Concentration,"[1]; PO 1 mg/kg, 0.25 h, individual animals, 1 mg/kg",6.05 ng/mL and 2.36 ng/mL and 5.82 ng/mL
same,Plasma Concentration,"[1]; PO 1 mg/kg, 0.5 h, individual animals, 1 mg/kg",19.1 ng/mL
same,Plasma Concentration,"[1]; PO 1 mg/kg, 2 h, individual animals, 1 mg/kg",47.5 ng/mL and 23.3 ng/mL and 44.9 ng/mL
same,Plasma Concentration,"[1]; PO 1 mg/kg, 4 h, individual animals, 1 mg/kg",37.4 ng/mL and 15.0 ng/mL and 27.5 ng/mL
same,Plasma Concentration,"[1]; PO 1 mg/kg, 6 h, individual animals, 1 mg/kg",25.4 ng/mL and 9.27 ng/mL and 16.5 ng/mL
same,Plasma Concentration,"[1]; PO 1 mg/kg, 8 h, individual animals, 1 mg/kg",20.4 ng/mL and 7.30 ng/mL and 11.6 ng/mL
same,Plasma Concentration,"[1]; PO 1 mg/kg, 24 h, individual animals, 1 mg/kg",2.29 ng/mL and 2.35 ng/mL and 19.1 ng/mL
same,Tmax,[1]; [3],2 h
same,half-life,[1]; [3],6.51 h
same,Cmax,"[1]; male, Lewis, rat, plasma, po, 0.2 mg/kg, 0.2 mg/kg PO, individual animals, read-out: Cmax",7.99 ng/mL
same,MRT inf,[1]; [3],8.72 h
same,AUC(0-inf),[1]; [4],79 ng·h/mL
same,AUC(0-t),[1]; [4],67.9 ng·h/mL
same,Tmax,[1]; [4],2.67 h
same,half-life,[1]; [4],5.85 h
same,Cmax,"[1]; male, Lewis, rat, plasma, po, 0.2 mg/kg, 0.2 mg/kg PO, mean, read-out: Cmax",7.16 ng/mL
same,MRT inf,[1]; [4],8.65 h
same,concentration at 0.25 h,"[1]; male, Lewis, rat, plasma, po, 0.2 mg/kg, PO 0.2 mg/kg, 0.25 h, mean of 3 animals",0.34 ng/mL
same,concentration at 0.5 h,"[1]; male, Lewis, rat, plasma, po, 0.2 mg/kg, PO 0.2 mg/kg, 0.5 h, individual animals",2.31 ng/mL
same,concentration at 0.5 h,"[1]; male, Lewis, rat, plasma, po, 0.2 mg/kg, PO 0.2 mg/kg, 0.5 h, mean of 3 animals",1.77 ng/mL
same,concentration at 1 h,"[1]; male, Lewis, rat, plasma, po, 0.2 mg/kg, PO 0.2 mg/kg, individual animals",5.24 ng/mL
same,concentration at 1 h,"[1]; male, Lewis, rat, plasma, po, 0.2 mg/kg, PO 0.2 mg/kg, mean of 3 animals",4.51 ng/mL
same,concentration at 2 h,"[1]; male, Lewis, rat, plasma, po, 0.2 mg/kg, PO 0.2 mg/kg, 2 h, individual animals",7.99 ng/mL
same,concentration at 2 h,"[1]; male, Lewis, rat, plasma, po, 0.2 mg/kg, PO 0.2 mg/kg, 2 h, mean of 3 animals",7.09 ng/mL
same,concentration at 4 h,"[1]; male, Lewis, rat, plasma, po, 0.2 mg/kg, PO 0.2 mg/kg, 4 h, mean of 3 animals",6.11 ng/mL
same,concentration at 6 h,"[1]; male, Lewis, rat, plasma, po, 0.2 mg/kg, PO 0.2 mg/kg, 6 h, individual animals",4.13 ng/mL
same,concentration at 6 h,"[1]; male, Lewis, rat, plasma, po, 0.2 mg/kg, PO 0.2 mg/kg, 6 h, mean of 3 animals",4.48 ng/mL
same,concentration at 8 h,"[1]; male, Lewis, rat, plasma, po, 0.2 mg/kg, PO 0.2 mg/kg, 8 h, mean of 3 animals",3.96 ng/mL
same,concentration at 24 h,"[1]; male, Lewis, rat, plasma, po, 0.2 mg/kg, PO 0.2 mg/kg, 24 h, mean of 3 animals",0.389 ng/mL
same,Tmax,[1]; [5],2 h
same,half-life,[1]; [5],5.14 h
same,MRT inf,[1]; [5],7.1 h
same,AUC(0-inf),[1]; [6],335 ng·h/mL
same,AUC(0-t),[1]; [6],356 ng·h/mL
same,Tmax,[1]; [6],2 h
same,half-life,[1]; [6],7.24 h
same,Cmax,"[1]; male, Lewis, rat, plasma, po, 1 mg/kg, 1 mg/kg PO, mean, read-out: Cmax",38.6 ng/mL
same,MRT inf,[1]; [6],9.3 h
same,concentration at 0.25 h,"[1]; male, Lewis, rat, plasma, po, 1 mg/kg, PO 1 mg/kg, 0.25 h, mean of 3 animals",4.74 ng/mL
same,concentration at 0.5 h,"[1]; male, Lewis, rat, plasma, po, 1 mg/kg, PO 1 mg/kg, 0.5 h, mean of 3 animals",15.2 ng/mL
same,concentration at 1 h,"[1]; male, Lewis, rat, plasma, po, 1 mg/kg, PO 1 mg/kg, mean of 3 animals",30.4 ng/mL
same,concentration at 2 h,"[1]; male, Lewis, rat, plasma, po, 1 mg/kg, PO 1 mg/kg, 2 h, mean of 3 animals",38.6 ng/mL
same,concentration at 4 h,"[1]; male, Lewis, rat, plasma, po, 1 mg/kg, PO 1 mg/kg, 4 h, mean of 3 animals",26.6 ng/mL
same,concentration at 6 h,"[1]; male, Lewis, rat, plasma, po, 1 mg/kg, PO 1 mg/kg, 6 h, mean of 3 animals",17.1 ng/mL
same,concentration at 8 h,"[1]; male, Lewis, rat, plasma, po, 1 mg/kg, PO 1 mg/kg, 8 h, mean of 3 animals",13.1 ng/mL
same,concentration at 24 h,"[1]; male, Lewis, rat, plasma, po, 1 mg/kg, PO 1 mg/kg, 24 h, mean of 3 animals",7.9 ng/mL
same,"Final Hydroxyproline Con., Mean","hydroxyproline; UUO rats + Compound A, group mean of 8",0.66 μg/mg tissue
same,"Final Hydroxyproline Con., Mean ± SEM","hydroxyproline; UUO rats + Compound A, group of 8",0.66 ± 0.05 μg/mg tissue
same,Final Hydroxyproline Con.,"hydroxyproline; UUO rats + Compound A, individual animals",0.69 μg/mg tissue and 0.86 μg/mg tissue and 0.63 μg/mg tissue and 0.61 μg/mg tissue (2×) and 0.64 μg/mg tissue and 0.44 μg/mg tissue and 0.80 μg/mg tissue
same,"Hydroxyproline levels, difference between experimental groups","hydroxyproline; UUO rats, 10 mg/kg",No significant differences
